Assay results taken from patent US20180344855A1, “Stable Anti-inflammatory Solutions for Injection” (Omeros Corporation, priority 2011, published 2018).
Where a name gives a salt, the structure may show the parent alone. Read-outs that look alike come from different tables or passages of the source.

Experiments:
COX = settings: non-selective COX assay; cited from earlier work
[1] = Procedure: Thus, the final concentration of Na citrate was about 50 mM. Three cGMP registration lots of the formulation, each in three hundred liter volume, were manufactured and stored at temperatures of 5° C., 25° C., 30° C., or 40° C. for long-term stability evaluation. Aliquots were taken from each lot at intervals and analyzed for potency and presence of related substances. In addition, the lots were visually inspected for appearance and the pH was also monitored.
Related substances (RS) were detected by HPLC.

[2] = One-liter scale stability study with or without Na2 EDTA, N2 overlay or sparge (Example 8); assay type: physicochemical; settings: over six months
[3] = Formulation screening: storage stability, related substances by gradient HPLC (Examples 2-5); assay type: physicochemical; settings: in the presence of 0.05% w/v Na2 EDTA versus none; up to thirty days
Procedure: The stability of the active pharmaceutical ingredients was tested in acetate or citrate buffers. […] Chromatographic conditions for the related substances assay were as follows: (a) Detection wave length, UV 215 nm; (b) Column, Zorbax SB-C8, 5 μm, 4.6×250 mm; (c) Column temp, 30±1° C.; (d) Sample temp, Ambient; (e) Flow rate, 1.2 mL/min; (f) Injection volume, 20 μL; (g) Run Time, 30 minutes.
F6 included 50 mM Na acetate buffer, pH 5.5; F7 included 50 mM Na citrate buffer, pH 5.5. […] Citric acid also has the ability to chelate divalent cations and can prevent oxidation, thus acting both as a buffering agent and an antioxidant.
The Stability of the Active Pharmaceutical Ingredients was Tested in Buffers with varying pH values. […] Data not shown. Both formulations included 50 mM Na citrate buffer. F8 pH was 6.5 and F9 pH was 5.5.
The stability of the active, pharmaceutical ingredients in liquid formulation was tested in the presence of N2 overlay and light protection. Two formulations, F10 and F11, were prepared and stored for up to 28 days under the conditions shown in FIG. 4A, i.e., with or without N2 overlay and light protection. […] F10 was prepared under protection from light and N2 overlay post-compounding and pre-filling of formulation into vials, while F11 was not.
The effect of antioxidants on stability of the active pharmaceutical ingredients in liquid formulation was tested. […]

[4] = target: human 5-HT1B and 5-HT1D receptors; settings: range over human 5-HT1B and 5-HT1D receptors; cited from earlier work
[5] = target: α1A- and α2A-adrenoceptors; settings: range over α1A- and α2A-adrenoceptors; cited from earlier work
5-HT1B/1D receptor = settings: human saphenous vein; read-out: IC50 (functional agonist); cited from earlier work
[6] = target: non-human 5-HT1A, 5-HT1B and 5-HT1D receptors; settings: range over non-human 5-HT1A; cited from earlier work

CC(C(=O)O)c1cccc(C(=O)c2ccccc2)c1 (stereo not drawn) [Ketoprofen, ketoprofen]
IC50 (COX): 4 to 8 nM

Cc1cc(C(C)(C)C)c(O)c(C)c1CC1=NCCN1 [Oxymetazoline HCl, oxymetazoline HCl]
total RS % ([1]; stored at 30° C. and 40° C.): increased significantly
total RS % ([1]; two years at 5° C.): 0.00%
total RS % ([1]; two years at 25° C.): about 0.15%
related substances of the named API [2]: less than 1%

CN(C)CCC=C1c2ccccc2CCc2ccccc21 [amitriptyline HCl]
chemical stability [3]: improved
stability in the tested formulation [1]: stable
RS presence ([1]; 4° C.): present sporadically
percentage of RS over time ([1]; 25° C. and 30° C.): increased over the first three months, and then was stable for up to two years
percentage of RS over time ([1]; 40° C.): increased during the first month and then stabilized
related substances of the named API [2]: less than 5%

Cc1cc(C(C)(C)C)c(O)c(C)c1CC1=NCCN1 [oxymetazoline]
Ki [4]: 0.3 to 0.4 nM
Ki [5]: 3 to 6 nM
IC50 (5-HT1B/1D receptor): 30 nM
IC50 [6]: 3 to 26 nM
